Laboratory results published in patent EP3974434B1, “MACROLIDE DERIVATIVES, PREPARATION METHOD AND APPLICATION THEREOF” (Zhejiang Hisun Pharmaceutical Co., Ltd., priority 2019, dated 2020).

How the values were obtained:
BAF3 LMNA-TRKA^G667C = assay: Cell proliferation assay (CellTiter-Glo), BAF3 LMNA-TRKA G667C; format: cell-based; conditions: Mus musculus, 72 hours
Experimental: The following method was used to determine the effects of the compounds of the present invention on cell proliferation. BAF3 cells were purchased from National Infrastructure of Cell Line Resource (Beijing Headquarter). For TRKA, BAF3 cells were used to construct […] stable cell lines of BAF3 LMNA-TRKA^WT and BAF3 LMNA-TRKA^G667C.The above […] cell lines were used to determine the inhibition of the compounds on cell activities. The cells were cultured in an RPMI 1640 medium containing 10% fetal bovine serum, 100 U penicillin and 100 µg/mL streptomycin. The cells were cultured in a 5% CO2 incubator at 37°C. The activities of the cells were determined by CellTiter-Glo® Luminescent Cell Viability Assay kit (Promega, article number: G7573).
(§1) The experimental methods were operated according to the steps in the kit instruction, and were briefly described as follows: a test compound was first dissolved in DMSO to prepare a storage solution, and then diluted in gradient with the corresponding cell culture medium to prepare a test sample. A final concentration of the compound ranged from 1 µM to 0.15 nM. […] After the culture, 50 µL of CellTiter-Glo detection solution was added to each well, shaken for 5 minutes, and then stood for 10 minutes, and the luminescence values of each well were read on the microplate reader using a Luminance mode. […]

[1] = tested on: KARPAS-299 (human anaplastic large cell lymphoma cell); assay: Cell proliferation assay (CellTiter-Glo), KARPAS-299; format: cell-based; conditions: 72 hours, NPM-ALK fusion
From the text: The following method was used to determine the effects of the compounds of the present invention on cell proliferation. H2228 cells (containing EML4-ALK fusion) were purchased from Cell Resource Center of Shanghai Institutes for Biological Sciences, Chinese Academy of Sciences. KARPAS-299 cells (containing NPM-ALK fusion) were purchased from Nanjing COBIOER Biotechnology Co., Ltd. The above two cell lines were used to determine the inhibition of the compounds on cell activities. The cells were cultured in an RPMI 1640 medium containing 10% fetal bovine serum, 100 U penicillin, 100 µg/mL streptomycin, and 1 mM Sodium Pyruvate. The cells were cultured in a 5% CO2 incubator at 37°C. The activity of the cells was determined by CellTiter-Glo® Luminescent Cell Viability Assay kit (Promega, article number: G7573).
as §1, with “sample.” for “sample. A final concentration of the compound ranged from 1 µM to 0.15 nM.”

TRKB = target: T1, TRKB (Homo sapiens, UniProt Q16620); assay: HTRF KinEASE-TK kinase activity inhibition assay, TRKB; format: biochemical; conditions: ATP 10 µM
T1 construct: purchased Carna bioscience 08-187
T1 sequence (Q16620 32-822): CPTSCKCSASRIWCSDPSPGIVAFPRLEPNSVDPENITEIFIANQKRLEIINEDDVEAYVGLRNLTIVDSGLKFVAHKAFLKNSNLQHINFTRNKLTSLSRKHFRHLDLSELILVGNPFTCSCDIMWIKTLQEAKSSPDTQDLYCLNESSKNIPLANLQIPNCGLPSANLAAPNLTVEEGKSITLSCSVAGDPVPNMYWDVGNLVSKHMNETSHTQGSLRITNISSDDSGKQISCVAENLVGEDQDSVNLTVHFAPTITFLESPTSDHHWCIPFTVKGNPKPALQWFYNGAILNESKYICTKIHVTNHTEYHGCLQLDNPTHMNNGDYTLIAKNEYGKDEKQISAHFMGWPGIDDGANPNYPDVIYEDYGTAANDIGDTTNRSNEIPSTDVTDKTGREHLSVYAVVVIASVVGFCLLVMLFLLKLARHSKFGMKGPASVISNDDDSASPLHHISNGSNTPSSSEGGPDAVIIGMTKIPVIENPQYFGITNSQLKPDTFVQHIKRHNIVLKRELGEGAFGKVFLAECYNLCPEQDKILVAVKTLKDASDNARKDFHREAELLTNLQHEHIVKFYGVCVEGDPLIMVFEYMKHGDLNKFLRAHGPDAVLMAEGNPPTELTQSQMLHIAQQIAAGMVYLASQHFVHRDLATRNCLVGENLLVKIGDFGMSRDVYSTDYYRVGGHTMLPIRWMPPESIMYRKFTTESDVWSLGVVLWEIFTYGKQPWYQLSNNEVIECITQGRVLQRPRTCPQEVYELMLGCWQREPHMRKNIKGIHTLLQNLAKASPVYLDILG
From the text: The following method was used to determine the inhibition degrees of the compounds of the present invention on the activity of recombinant human NTRK family kinase in vitro. In this method, HTRF®KinEASE-TK tyrosine kinase kit (article number: 62TK0PEB) of Cisbio company was used, and the principle of the kit was based on time-resolved fluorescence resonance energy transfer (TF-FRET), and the inhibition of the compounds on the activity of the NTRK kinase was reflected by determining a phosphorylation degree of a biotinylated polypeptide substrate mediated by NTRK kinase. For detailed experimental operation, please refer to the kit instruction. Recombinant human wild-type NTRK proteins were purchased from Carna bioscience (the article numbers were TRKA #08-186, TRKB #08-187 and TRKC #08-197 respectively), and recombinant human mutant NTRK proteins were purchased from SignalChem (the article numbers were TRKA G595R #N16-12BG-10, TRKA G667C # N16-12CG-10, and TRKC G623R # N18-12CH-10 respectively).
The experimental methods were operated according to the steps in the kit instruction, and were briefly described as follows: a test compound was first dissolved in DMSO to prepare a storage solution, and then diluted in gradient with a buffer provided in the kit. A final concentration of the test compound in the reaction system ranged from 1,000 nM to 0.004 nM. An ATP Km value concentration of each NTRK protein was determined by using an ATP solution diluted in gradient (Sangon Biotech (Shanghai) Co., Ltd., A600311). According to the Km value obtained, the ATP concentrations in the reaction system were set as 100 µM for TRKA, 10 µM for TRKB, 50 µM for TRKC, 7 µM for TRKA(G595R), 1 µM for TRKA(G667C) and 100 µM for TRKC(G623R). The reaction was carried out in a 384-well microplate. Firstly, the compound and a certain amount of corresponding NTRK protein were added to the wells and incubated for 5 minutes to 10 minutes at room temperature. Then, the ATP solution and the biotinylated polypeptide substrate solution were added to the reaction solution and incubated with shaking at room temperature for 60 minutes. Then, an anti-phosphorylated tyrosine antibody coupled with a europium compound and streptavidin coupled with modified allophycocyanin XL665 were added to the reaction, and continuously incubated with shaking at room temperature for 1 hour. After incubation, fluorescence intensity values of each well at an excitation wavelength of 304 nm, and emission wavelengths of 620 nm and 665 nM were determined in a TF-FRET mode on a microplate reader. Compared with the fluorescence intensity ratio of a control group (0.1% DMSO), the percentage inhibition rates of the compound at each concentration were calculated, and the IC50 value of the compound was obtained by performing nonlinear regression analysis for logarithmic value of the compound concentration - inhibition rate by GraphPad Prism 5 software, which can be seen in Table 1. Table 1 IC50 data of the compounds of the present invention on TRK enzyme activity inhibition

Row | IC50 (BAF3 LMNA-TRKA^G667C) [nM] | IC50 [1] [nM] | IC50 (TRKB) [nM] | SMILES
1 | 46.7 | 52.7 | 1.17 | C[C@H]1Nc2ccn3nc(N)c(c3n2)C(=O)NC[C@@]2(C)Cc3cc(F)cc1c3O2 [Example 25, (3R,11R)-16-amino-6-fluoro-3,11-dimethyl-10-oxa-2,13,17,18,21-pentaazapentacyclo[13.5.2.1^8,11.0^4,9. 0^18,22]tricosa-1(21),4,6,8,15(22),16,19-heptaen-14-one]
2 | 77.6 | 65.5 | 0.45 | C[C@H]1Nc2ccn3ncc(c3n2)C(=O)NC[C@@]2(C)Cc3cc(F)cc1c3O2 [Example 8, (3R,11R)-6-fluoro-3,11-dimethyl-10-oxa-2,13,17,1 8,21-pentaazapentacyclo[13.5.2.1^8,11.0^4,9.0^18,22]tric osa-1(21),4,6,8,15(22),16,19-heptaen-14-one]
